According to ChEMBL document CHEMBL1145000, “Nitro and amino substitution in the D-ring of 5-(2-dimethylaminoethyl)- 2,3-methylenedioxy-5H-dibenzo[c,h][1,6]naphthyridin-6-ones: effect on topoisomerase-I targeting activity and cytotoxicity” (J Med Chem, 2003):

How the values were obtained:
[1] = biological target: T1, DNA topoisomerase 1 (Homo sapiens) (UniProt P11387)
T1 sequence (whole entry): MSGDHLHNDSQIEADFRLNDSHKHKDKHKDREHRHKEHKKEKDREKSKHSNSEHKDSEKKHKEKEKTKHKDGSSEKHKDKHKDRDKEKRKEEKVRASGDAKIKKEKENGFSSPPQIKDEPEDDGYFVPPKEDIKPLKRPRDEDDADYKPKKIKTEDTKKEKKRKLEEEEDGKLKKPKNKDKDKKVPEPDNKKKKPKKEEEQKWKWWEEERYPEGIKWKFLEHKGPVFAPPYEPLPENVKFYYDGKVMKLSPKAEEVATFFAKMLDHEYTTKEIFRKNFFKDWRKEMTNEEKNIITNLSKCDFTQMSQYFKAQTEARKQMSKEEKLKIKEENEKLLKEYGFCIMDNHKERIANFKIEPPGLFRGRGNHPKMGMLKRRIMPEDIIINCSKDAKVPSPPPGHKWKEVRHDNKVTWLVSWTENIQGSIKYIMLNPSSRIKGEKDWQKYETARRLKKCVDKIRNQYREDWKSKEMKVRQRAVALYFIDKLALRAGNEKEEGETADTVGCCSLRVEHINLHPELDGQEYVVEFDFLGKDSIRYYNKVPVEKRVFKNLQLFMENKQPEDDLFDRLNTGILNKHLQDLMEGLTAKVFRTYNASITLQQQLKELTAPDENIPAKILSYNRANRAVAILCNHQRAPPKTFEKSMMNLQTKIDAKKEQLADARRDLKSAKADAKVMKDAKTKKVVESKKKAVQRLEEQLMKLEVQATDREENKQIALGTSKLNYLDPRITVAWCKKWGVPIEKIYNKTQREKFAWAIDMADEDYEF
Description: Effective concentration required to cleave DNA, mediated by human DNA topoisomerase I (TOP1) reported as REC i.e. concentration relative to topotecan (assumed as 1)

[2] = Cytotoxic activity against human lymphoblast tumor cell line CPT-K5 after 4 days of treatment; type: functional; conditions: CPT-K5, 96 h
RPMI 8402 = test: Cytotoxic activity against human lymphoblast tumor cell line RPMI8402 after 4 days of treatment; type: functional, cell-based; conditions: RPMI 8402, 96 h

Compound | REC [1] | IC50 [2] [nM] | IC50 (RPMI 8402) [nM]
CCCCn1c(=O)c2cc([N+](=O)[O-])ccc2c2cnc3cc4c(cc3c21)OCO4 | 10 | > 10000 | 240
COc1cc2c(=O)n(CCN(C)C)c3c4cc5c(cc4ncc3c2cc1OC)OCO5 |  | 900 | 
CN(C)CCn1c(=O)c2ccc([N+](=O)[O-])cc2c2cnc3cc4c(cc3c21)OCO4 | 0.1 | 2800 | 2
CN(C)CCn1c(=O)c2cccc([N+](=O)[O-])c2c2cnc3cc4c(cc3c21)OCO4 | 1000 | > 10000 | 4800
CCCCn1c(=O)c2cc(N)ccc2c2cnc3cc4c(cc3c21)OCO4 | 500 | > 10000 | 1250
COc1cc2c(=O)n(CCN(C)C)c3c4cc5c(cc4nnc3c2cc1OC)OCO5 | 0.3 | 600 | 
CN1CCN(c2ccnc3cc4c(cc23)OCO4)C(=O)c2cc([N+](=O)[O-])ccc21 | 1000 | > 10000 | 3000
CN(C)CCn1c(=O)c2ccc(N)cc2c2cnc3cc4c(cc3c21)OCO4 | 0.5 | 1000 | 25
CN(C)CCn1c(=O)c2cccc(N)c2c2cnc3cc4c(cc3c21)OCO4 | 15 | 3200 | 340
CN(C)CCn1c(=O)c2cc([N+](=O)[O-])ccc2c2cnc3cc4c(cc3c21)OCO4 | 0.2 | 330 | 3
CC[C@@]1(O)C(=O)OCc2c1cc1n(c2=O)Cc2cc3c(CN(C)C)c(O)ccc3nc2-1 [TOPOTECAN] | 1 | > 50000 | 
CN(C)CCn1c(=O)c2ccccc2c2cnc3cc4c(cc3c21)OCO4 | 6 | 950 | 60
CC[C@@]1(O)C(=O)OCc2c1cc1n(c2=O)Cc2cc3ccccc3nc2-1 [CAMPTOTHECIN] | 0.5 |  | 5
CN(C)CCn1c(=O)c2cc(N)ccc2c2cnc3cc4c(cc3c21)OCO4 | 8 | 380 | 80
COc1cc([C@@H]2c3cc4c(cc3[C@@H](O[C@@H]3O[C@@H]5CO[C@@H](c6cccs6)O[C@H]5[C@H](O)[C@H]3O)[C@H]3COC(=O)[C@H]23)OCO4)cc(OC)c1O [TENIPOSIDE] | > 1000 | 280 | 
